Patent US9561276B2, “Method of treating onychomycosis” (DUSA PHARMACEUTICALS, INC., priority 2012, dated 2017)
Structures can show the parent of a compound that is named as a salt.

What was measured:
[1] = test system: mouse skin; conditions: cited from earlier work
[2] = test system: onychomycosis of the toenail; test: ALA-based PDT of onychomycosis with 10 day delay before red light (Example 1)
Protocol: A 5 percent ALA solution was prepared by dilution of 20 percent ALA Topical Solution (Levulan® Kerastick® (aminolevulinic acid HCl) for Topical Solution, 20%). The ALA solution was then applied to a healthy volunteer suffering from mild to moderate onychomycosis involving the hallux (proximal or big toe) toenail and the second toenail of the left foot. The ALA solution was applied liberally to the nail surface and the periungual skin areas. The entire toe was wrapped in an occlusive dressing (Tegaderm®) for 12 hours. Twenty-four hours post ALA application, the treated area was examined for porphryin fluorescence using a long wave UV light (Wood's Light) as an excitation source.
The subject was instructed to avoid light exposure to the treated toes. Fluorescence evaluation was performed again 10 days post ALA application.
The subject was then treated with 100 Joules/cm^2 of red light using the Sciencetech 7500 illuminator, causing an activation reaction.
The subject was again instructed to avoid light exposure to the treated toes. Follow up evaluations were performed 5 and 20 days post light treatment (15 and 30 days post ALA application).

[3] = test system: acne lesions; conditions: in vivo; cited from earlier work
[4] = test system: onychomycosis of the toenail; conditions: in vivo; cited from earlier work
[5] = test system: onychomycosis; conditions: cited from earlier work
[6] = 100 Joules/cm^2 red light 10 days post ALA

Row | Structure (SMILES) | time for protoporphyrin levels to return to near pretreatment baseline [1] | time to peak protoporphyrin IX concentration [1] | sensation during light treatment, proximal toe [2, 6] | sensation during light treatment, second toe [2, 6] | local reaction (edema, redness), proximal toe ([2]; 5 days post light treatment) | local reaction (redness), second toe ([2]; 5 days post light treatment) | appearance of treated toes ([2]; 20 days after exposure to the activating red light) | adverse effects associated with the treatment ([2]; noted by subject) | time until ability of light to specifically excite protoporphyrin IX disappeared [3] [h] | local adverse reaction [4] | adverse events unrelated to the treatment site ([5]; in vivo, po) | complete clearance ([5]; oral, complete course of treatment (every day for three months))
1 | NCC(=O)CCC(=O)O [ALA, aminolevulinic acid] | about 18 hours | about six | only mild tingling and slight stinging | little to no sensation | only slight edema in the area around the nail plate, and mild redness of the nail bed itself | only slight redness in the nail bed | both treated toes appeared normal | no adverse effects | ≤ 24 | redness and edema (swelling) | – | –
2 | CN(C/C=C/C#CC(C)(C)C)Cc1cccc2ccccc12 [terbinafine, terbinafine hydrochloride] | – | – | – | – | – | – | – | – | – | – | gastrointestinal disorders, rashes, disruption of the sense of taste, and liver disorders | only a minority of cases
